Peptide text beside a SMILES is read from it.
Columns and labels:
[1] = system: lymphocytes of the guinea pigs; experiment: E-yield (E-POK) of guinea pig lymphocytes after processing with trypsin; assay type: cell-based; conditions: untreated animals 66.5, treated with trypsin 36.1
Description: Biological activity of the new peptide was studied on guinea pigs using recognised testing methods of E-yield of lymphocytes of the guinea pigs subsequent to processing with trypsin.
*Each concentration was tested on 5 animals. The positive growth differs
in relation to the control group EPOK is 50% or higher.

[2] = Solubility of the peptide; assay type: physicochemical
Source text: The peptide obtained by the above formula has the texture of a white powder, which is soluble in water, not completely soluble in alcohol and non soluble on chloroform.
Solubility--Soluble in water, non soluble in chloroform.

## CC[C@H](C)[C@H](N)C(=O)N[C@@H](CCC(=O)O)C(=O)N[C@@H](Cc1c[nH]c2ccccc12)C(=O)O [Ile-Glu-Trp, H-Ile-Glu-Trp-OH] (H-Ile-Glu-Trp-OH)
[1]; compound concentration 10^-6 mg/ml
  QUANTITY E-POK, (%) after treatment with trypsin and compound: 61.4%
[1]; compound concentration 10^-7 mg/ml
  QUANTITY E-POK, (%) after treatment with trypsin and compound: 63.9%
[1]; compound concentration 10^-8 mg/ml
  QUANTITY E-POK, (%) after treatment with trypsin and compound: 64.8%
[1]; compound concentration 10^-9 mg/ml
  QUANTITY E-POK, (%) after treatment with trypsin and compound: 60.2%
[1]; compound concentration 10^-10 mg/ml
  QUANTITY E-POK, (%) after treatment with trypsin and compound: 37.5%
[1]; compound concentration 10^-11 mg/ml
  QUANTITY E-POK, (%) after treatment with trypsin and compound: 40.0%
[1]; compound concentration 10^-12 mg/ml
  QUANTITY E-POK, (%) after treatment with trypsin and compound: 34.3%
[2]; chloroform
  Solubility in chloroform: non soluble
[2]; water
  Solubility in water: Soluble
